Source: ChEMBL document CHEMBL4665887, “Identification, Structure-Activity Relationships of Marine-Derived Indolocarbazoles, and a Dual PKCθ/δ Inhibitor with Potent Antipancreatic Cancer Efficacy” (J Med Chem, 2020)

Legend:
BXPC-3 [1] = test: Induction of apoptosis in human BXPC-3 cells assessed as early apoptotic cells level at 0.25 uM incubated for 24 hrs by PI and annexin V-FITC staining based flow cytometry (reference value: 5.69%); type: functional
BXPC-3 [2] = test: Induction of apoptosis in human BXPC-3 cells assessed as viable cells level at 0.25 uM incubated for 24 hrs by PI and annexin V-FITC staining based flow cytometry (reference value: 93.43%); type: functional
[3] = Toxicity in BALB/c mouse model of patient-derived xenograft implanted with patient-derived pancreatic cancer cells assessed as effect on normal anatomical structures of heart at 6 mg/kg, iv dosed once every 2 days for 18 days relative to control; type: organism-based; conditions: in vivo, 432 h, time 18 day
BXPC-3 [4] = test: Induction of apoptosis in human BXPC-3 cells assessed as late apoptotic cells level at 0.25 uM incubated for 24 hrs by PI and annexin V-FITC staining based flow cytometry (reference value: 0.83%); type: functional
[5] = Effect in PKCtheta protein expression in human BXPC-3 cells at 0.25 to 1 uM incubated for 4 hrs by Western blot analysis; type: ADME, cell-based; conditions: bxpc-3, 4 h, dose 0.25-1 µM
[6] = Toxicity in nude BALB/c mouse xenografted with human BXPC-3 cells assessed as effect on body weight level at 6 mg/kg, iv QD for 18 days relative to control; type: organism-based; conditions: in vivo, 432 h, time 18 day
BXPC-3 [7] = test: Induction of apoptosis in human BXPC-3 cells assessed as viable cells level at 0.5 uM incubated for 24 hrs by PI and annexin V-FITC staining based flow cytometry (reference value: 93.43%); type: functional
[8] = Toxicity in BALB/c mouse model of patient-derived xenograft implanted with patient-derived pancreatic cancer cells assessed as effect on normal anatomical structures of lung at 6 mg/kg, iv dosed once every 2 days for 18 days relative to control; type: organism-based; conditions: in vivo, 432 h, time 18 day
[9] = Antitumor activity against patient-derived pancreatic cancer cells xenografted in BALB/c mouse model of patient-derived xenograft assessed as inhibition of tumor growth at 6 mg/kg, iv dosed once every 2 days for 18 days relative to control; type: functional; conditions: Homo sapiens, Pancreatic cancer cell, 432 h, time 18 day, read-out: TGI
BXPC-3 [10] = test: Induction of apoptosis in human BXPC-3 cells assessed as necrotic cells level at 0.5 uM incubated for 24 hrs by PI and annexin V-FITC staining based flow cytometry (reference value: 0.05%); type: functional
ASPC1 = test: Cytotoxicity in human ASPC1 cells assessed as reduction in cell viability incubated for 24 hrs by CCK8 assay; type: functional, cell-based; conditions: ASPC1, 24 h
[11] = target: Protein kinase C delta type (Homo sapiens, UniProt Q05655); test: Inhibition of PKCdelta (unknown origin) by HTRF assay
BXPC-3 [12] = test: Cytotoxicity in human BXPC-3 cells assessed as reduction in cell viability incubated for 24 hrs by CCK8 assay; type: functional, cell-based; conditions: BXPC-3, 24 h
[13] = Toxicity in BALB/c mouse model of patient-derived xenograft implanted with patient-derived pancreatic cancer cells assessed as effect on normal anatomical structures of spleen at 6 mg/kg, iv dosed once every 2 days for 18 days relative to control; type: organism-based; conditions: in vivo, 432 h, time 18 day
BXPC-3 [14] = test: Induction of apoptosis in human BXPC-3 cells assessed as late apoptotic cells level at 0.5 uM incubated for 24 hrs by PI and annexin V-FITC staining based flow cytometry (reference value: 0.83%); type: functional
NCI-H1975 = test: Cytotoxicity in human NCI-H1975 cells assessed as reduction in cell viability incubated for 24 hrs by CCK8 assay; type: functional, cell-based; conditions: NCI-H1975, 24 h
[15] = Toxicity in BALB/c mouse model of patient-derived xenograft implanted with patient-derived pancreatic cancer cells assessed as effect on body weight at 6 mg/kg, iv dosed once every 2 days for 18 days relative to control; type: organism-based; conditions: in vivo, 432 h, time 18 day
BXPC-3 [16] = test: Induction of apoptosis in human BXPC-3 cells assessed as necrotic cells level at 0.25 uM incubated for 24 hrs by PI and annexin V-FITC staining based flow cytometry (reference value: 0.05%); type: functional
NCI-H1299 = test: Cytotoxicity in human NCI-H1299 cells assessed as reduction in cell viability incubated for 24 hrs by CCK8 assay; type: functional, cell-based; conditions: NCI-H1299, 24 h
A549 = test: Cytotoxicity in human A549 cells assessed as reduction in cell viability incubated for 24 hrs by CCK8 assay; type: functional, cell-based; conditions: A549, 24 h
PC-9 = test: Cytotoxicity in human PC-9 cells assessed as reduction in cell viability incubated for 24 hrs by CCK8 assay; type: functional, cell-based; conditions: PC-9, 24 h
RKO = test: Cytotoxicity in human RKO cells assessed as reduction in cell viability incubated for 24 hrs by CCK8 assay; type: functional, cell-based
MGC-803 = test: Cytotoxicity in human MGC-803 cells assessed as reduction in cell viability incubated for 24 hrs by CCK8 assay; type: functional, cell-based; conditions: MGC-803, 24 h
[17] = Toxicity in BALB/c mouse model of patient-derived xenograft implanted with patient-derived pancreatic cancer cells assessed as effect on normal anatomical structures of liver at 6 mg/kg, iv dosed once every 2 days for 18 days relative to control; type: organism-based; conditions: in vivo, 432 h, time 18 day
[18] = target: Protein kinase C theta type (Homo sapiens, UniProt Q04759); test: Inhibition of PKCtheta (unknown origin) by HTRF assay
[19] = Toxicity in BALB/c mouse model of patient-derived xenograft implanted with patient-derived pancreatic cancer cells assessed as effect on normal anatomical structures of kidney at 6 mg/kg, iv dosed once every 2 days for 18 days relative to control; type: organism-based; conditions: in vivo, 432 h, time 18 day
BXPC-3 [20] = test: Induction of apoptosis in human BXPC-3 cells assessed as early apoptotic cells level at 0.5 uM incubated for 24 hrs by PI and annexin V-FITC staining based flow cytometry (reference value: 5.69%); type: functional
BXPC-3 [21] = test: Antitumor activity against human BXPC-3 cells xenografted in nude BALB/c mouse assessed as inhibition of tumor growth at 6 mg/kg, iv QD for 18 days relative to control; type: functional; conditions: BXPC-3, iv, 432 h, time 18 day, read-out: TGI

Protein kinase C delta type, sequence (Q05655 whole entry): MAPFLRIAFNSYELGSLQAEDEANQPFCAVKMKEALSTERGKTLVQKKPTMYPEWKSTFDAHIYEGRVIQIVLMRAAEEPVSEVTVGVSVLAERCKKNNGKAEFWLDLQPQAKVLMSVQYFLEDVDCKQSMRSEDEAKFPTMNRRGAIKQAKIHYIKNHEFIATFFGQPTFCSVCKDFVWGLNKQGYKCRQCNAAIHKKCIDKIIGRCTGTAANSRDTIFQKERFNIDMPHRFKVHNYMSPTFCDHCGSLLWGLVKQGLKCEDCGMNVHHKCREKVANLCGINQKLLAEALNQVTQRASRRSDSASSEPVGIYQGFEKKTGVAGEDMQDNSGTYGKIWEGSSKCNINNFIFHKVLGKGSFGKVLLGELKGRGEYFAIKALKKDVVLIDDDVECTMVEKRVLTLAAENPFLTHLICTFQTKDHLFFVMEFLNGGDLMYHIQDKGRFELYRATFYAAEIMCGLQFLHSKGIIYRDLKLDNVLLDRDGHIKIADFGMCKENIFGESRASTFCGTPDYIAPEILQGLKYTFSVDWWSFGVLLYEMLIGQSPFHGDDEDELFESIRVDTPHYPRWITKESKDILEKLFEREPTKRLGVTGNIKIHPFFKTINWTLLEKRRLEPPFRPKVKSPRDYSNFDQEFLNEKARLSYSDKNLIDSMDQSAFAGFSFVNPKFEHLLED
Protein kinase C theta type, sequence (Q04759 whole entry): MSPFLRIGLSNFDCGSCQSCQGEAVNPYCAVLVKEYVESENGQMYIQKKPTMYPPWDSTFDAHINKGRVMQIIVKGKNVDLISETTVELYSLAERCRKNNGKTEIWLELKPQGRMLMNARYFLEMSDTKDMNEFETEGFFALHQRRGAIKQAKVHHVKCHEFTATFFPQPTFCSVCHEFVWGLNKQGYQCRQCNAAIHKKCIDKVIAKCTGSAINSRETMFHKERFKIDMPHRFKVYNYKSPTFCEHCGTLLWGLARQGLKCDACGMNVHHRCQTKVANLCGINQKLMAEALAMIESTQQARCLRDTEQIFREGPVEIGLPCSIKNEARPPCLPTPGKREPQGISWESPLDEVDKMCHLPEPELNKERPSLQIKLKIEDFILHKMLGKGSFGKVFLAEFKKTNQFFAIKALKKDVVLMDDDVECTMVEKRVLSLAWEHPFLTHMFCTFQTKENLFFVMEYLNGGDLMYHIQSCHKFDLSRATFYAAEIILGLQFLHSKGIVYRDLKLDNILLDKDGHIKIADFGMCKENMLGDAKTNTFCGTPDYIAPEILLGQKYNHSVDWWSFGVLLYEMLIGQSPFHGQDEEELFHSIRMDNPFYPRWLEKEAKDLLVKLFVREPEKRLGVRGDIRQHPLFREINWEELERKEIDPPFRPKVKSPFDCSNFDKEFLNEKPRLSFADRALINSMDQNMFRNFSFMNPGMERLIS

In the case of CN[C@@H]1C[C@H]2O[C@@](C)([C@@H]1OC)n1c3ccccc3c3c4c(c5c6ccccc6n2c5c31)C(=O)NC4=O (stereo in doubt; 15), the Activity (BXPC-3 [1]) is reported as 33.77%, the Activity (BXPC-3 [2]) is reported as 63.54% and the Activity [3] is reported as “Non-Toxic”. For the same compound, the Activity (BXPC-3 [4]) was 2.66%, the Activity [5] was “Non-Toxic” and the Activity [6] was “Non-Toxic”. The Activity (BXPC-3 [7]) was 46.45%, the Activity [8] was “Non-Toxic” and the inhibition in vivo at 6 mg/kg [9] was 56.9%. The Activity (BXPC-3 [10]) was 0.59%, the IC50 (ASPC1) was 1200 nM and the IC50 [11] was 21 nM. For the same compound, the IC50 (BXPC-3 [12]) was 430 nM, the Activity [13] was “Non-Toxic” and the Activity (BXPC-3 [14]) was 6.89%. The IC50 (NCI-H1975) was 2010 nM, the Activity [15] was “Non-Toxic” and the Activity (BXPC-3 [16]) was 0.04%. It also gave an IC50 (NCI-H1299) of 2030 nM, an IC50 (A549) of 780 nM and an IC50 (PC-9) of 1880 nM. The IC50 (RKO) was 1470 nM, the IC50 (MGC-803) was 1520 nM and the Activity [17] was “Non-Toxic”. For the same compound, the IC50 [18] was 6 nM, the Activity [19] was “Non-Toxic” and the Activity (BXPC-3 [20]) was 46.07%. The inhibition in vivo at 6 mg/kg (BXPC-3 [21]) was 49.6%.
